Data reported in US4518597A, “Substituted benzoxazin-2-ones and pharmaceutical compositions containing them” (Dr. Karl Thomae GmbH, priority 1982, dated 1985).

What was measured:
primary hemostasis = assay: Determination of the prolongation of bleeding time in conscious mice; format: in vivo; details: Mus musculus, 1 h, 10 mg/kg oral, one hour, as compared to a control group, read-out: Prolongation of Bleeding Time after One Hour (%)
Procedure: Since, in the event of injury, the first rapid cessation of bleeding is effected by the adhesion and aggregation of the thrombocytes at the vessel wall, the functioning of the thrombocytes can easily be determined by measuring the bleeding time with a standardized injury. The normal bleeding time in humans is between 1 and 3 minutes, assuming that there are sufficient intact, effective thrombocytes. If the number of thrombocytes is normal and the bleeding time is prolonged, this signifies an abnormality in the thrombocytes. This is found in some inborn errors of thrombocyte function. If, on the other hand, it is desired to prevent spontaneous aggregation of the thrombocytes and occlusion in the arterial system by drugs, successful therapy affecting the thrombocytes should prolong the bleeding time. Therefore, with use of an antithrombotic substance, a prolongation of the bleeding time is expected. Also, there should be a normal coagulation time since the plasma coagulation system is not affected.
To measure the bleeding time, 10 mg/kg of the test compounds were administered orally to conscious mice. After one hour, 0.5 mm of the tip of the tail of each mouse was cut off, and droplets of blood were gently removed with filter paper every 30 seconds. The number of drops of blood thus obtained gives a bleeding time (5 animals per experiment).
The results in the following table represent the prolongation of the bleeding time in percent as compared to a control group.

mice = assay: Acute toxicity after oral administration of a single dose; format: in vivo; details: observation period 14 days; for Approximate Acute Toxicity: groups of ten, single oral dose; for animals died: single oral dose 1000 mg
Procedure: The acute toxicity of the test compounds was determined, as a guide, in groups of ten mice, after oral administration of a single dose (observation period: 14 days): […]

[1] = test system: phosphodiesterase (PDE) from human blood platelets; assay: PDE inhibition (phosphodiesterase from human blood platelets, 3H-cAMP hydrolysis); format: biochemical; details: human platelet PDE, 1 μmol/liter 3H-cAMP, pH 7.4, 15 minutes at 37° C.
Procedure: cAMP is hydrolyzed to AMP by phosphodiesterase (PDE) from various sources, including blood platelets.
The phosphodiesterase used was prepared by centrifugal extraction at 10,000 g from human blood platelets which were frozen in water and then thawed.
A quantity of 0.3 ml of a mixture containing 0.1 mol/liter of […] (pH 7.4), 3 mmols/liter of magnesium chloride, 1 mmol/liter of AMP, 1 μmol/liter of ^3 H-cAMP (specific activity about 10 MBq/μmol), PDE, and the inhibitor under investigation (water in the case of the control) was incubated for 15 minutes at 37° C. […] From a comparison of the results for inhibitor and control cases, the concentration of the respective inhibitor necessary for a 50% inhibiting effect (IC50) was calculated.

thrombocyte aggregation = assay: Antithrombotic activity: collagen-induced thrombocyte aggregation in platelet-rich plasma (Born and Cross); format: cell-based; details: Homo sapiens, 50% change in optical density, ten minutes at 37° C.
Procedure: The thrombocyte aggregation is determined in platelet-rich plasma from healthy test subjects using the method of Born and Cross [J. Physiol. 170, 397 (1964)]. To inhibit coagulation, the blood is mixed with 3.14 percent of sodium citrate in a volume ratio of 1:10.
The pattern of the decrease in optical density of the platelet suspension after administration of the aggregation-initiating substance is measured photometrically and recorded. The speed of aggregation is deduced from the angle of inclination of the density curve. The point of the curve where there is the most light transmittance is used to calculate the optical density.
The quantity of collagen used is as small as possible, but sufficient to produce an irreversible reaction curve. The standard commercial collagen made by Hormonchemie of Munich is used. Before the collagen is administered, the plasma is incubated with the substance for ten minutes at 37° C.
From the measurements obtained, and EC50 is obtained graphically, relating to a 50% change in optical density by way of an inhibition of aggregation.

SMILES | change in vivo at 10 mg/kg (primary hemostasis) | Approximate Acute Toxicity (mice) | animals died (mice) | IC50 [1] | EC50 (thrombocyte aggregation)
CC1(C)OC(=O)Nc2ccc(OCCCCS(=N)(=O)c3ccc(O)cc3)cc21 (centres unmarked) [B, 6-[4-(4-hydroxy-phenylsulfoximino)-butoxy]-4,4-dimethyl-4H-3,1-benzoxazin-2-one] | > 263% | 1000 mg | 0 out of 10 animals died | 230 nM | 280 nM
COc1ccc(S(=N)(=O)CCCCOc2ccc3c(c2)C(C)(C)OC(=O)N3)cc1 (centres unmarked) [C, 6-[4-(4-methoxy-phenylsulfoximino)-butoxy]-4,4-dimethyl-4H-3,1-benzoxazin-2-one] | > 241% | 1000 mg | 0 out of 10 animals died | 130 nM | 270 nM
CC1(C)OC(=O)Nc2ccc(OCCCC[S+]([O-])c3ccc(Cl)cc3)cc21 (centres unmarked) [Compound A, 6-[4-(4-chloro-phenylsulfinyl)-butoxyl]-4,4-dimethyl-4H-3,1-benzoxazin-2-one] | > 248% | 1000 mg | 0 out of 10 animals died | 240 nM | 340 nM
CC1(C)OC(=O)Nc2ccc(OCCCCS(=N)(=O)c3ccc(Br)cc3)cc21 (centres unmarked) [Compound I, 6-[4-(4-bromo-phenylsulfoximino)-butoxy]-4,4-dimethyl-4H-3,1-benzoxazin-2-one] | > 220% |  |  | 110 nM | 330 nM
Cc1ccc([S+]([O-])CCCCOc2ccc3c(c2)C(C)(C)OC(=O)N3)cc1 (centres unmarked) [D, 6-[4-(4-methyl-phenylsulfinyl)-butoxy]-4,4-dimethyl-4H-3,1-benzoxazin-2-one] | > 250% | 1000 mg | 0 out of 10 animals died | 210 nM | 330 nM
CC1(C)OC(=O)Nc2ccc(OCCCC[S+]([O-])c3ccc(C4CCCCC4)cc3)cc21 (centres unmarked) [E, 6-[4-(4-cyclohexyl-phenylsulfinyl)-butoxy]-4,4-dimethyl-4H-3,1-benzoxazin-2-one] | 46% | 1000 mg | 0 out of 10 animals died | 78 nM | 320 nM
CC1(C)OC(=O)Nc2ccc(OCCCCS(=N)(=O)c3ccc(Cl)c(Cl)c3)cc21 (centres unmarked) [F, 6-[4-(3,4-dichloro-phenylsulfoximino)-butoxy]-4,4-dimethyl-4H-3,1-benzoxazin-2-one] | > 275% |  |  | 42 nM | 210 nM
COc1cccc(S(=N)(=O)CCCCOc2ccc3c(c2)C(C)(C)OC(=O)N3)c1 (centres unmarked) [G] | > 245% |  |  | 77 nM | 270 nM
CC1(C)OC(=O)Nc2ccc(OCCCCS(=N)(=O)c3ccc(F)cc3)cc21 (centres unmarked) [H, 6-[4-(4-fluoro-phenylsulfoximino)-butoxy]-4,4-dimethyl-4H-3,1-benzoxazin-2-one] | > 211% |  |  | 180 nM | 320 nM
O=C1Nc2ccc(OCCCC[S+]([O-])c3ccccc3)cc2CO1 (centres unmarked) [K, 6-(4-phenylsulfinyl-butoxy)-4H-3,1-benzoxazin-2-one] | 121% |  |  | 1500 nM | 1900 nM
CC1(C)OC(=O)Nc2ccc(OCCCC[S+]([O-])c3ccc(Br)cc3)cc21 (centres unmarked) [L, 6-[4-(4-bromo-phenylsulfinyl)-butoxy]-4,4-dimethyl-4H-3,1-benzoxazin-2-one] | > 266% |  |  | 240 nM | 420 nM
Cc1cc(S(=N)(=O)CCCCOc2ccc3c(c2)C(C)(C)OC(=O)N3)ccc1Br (centres unmarked) [M, 6-[4-(4-bromo-3-methyl-phenylsulfoximino)-butoxy]-4,4-dimethyl-4H-3,1-benzoxazin-2-one] | 100% |  |  | 66 nM | 250 nM
Cc1ccc(S(=N)(=O)CCCCOc2ccc3c(c2)C(C)(C)OC(=O)N3)cc1 (centres unmarked) [N, 6-[4-(4-methyl-phenylsulfoximino)-butoxy]-4,4-dimethyl-4H-3,1-benzoxazin-2-one] | 63% |  |  | 65 nM | 220 nM
COc1ccc(S(=N)(=O)CCCCOc2ccc3c(c2)C(C)(C)OC(=O)N3)cc1OC (centres unmarked) [O, 6-[4-(3,4-dimethoxy-phenylsulfoximino)-butoxy]-4,4-dimethyl-4H-3,1-benzoxazin-2-one] | > 227% |  |  | 200 nM | 270 nM
CC1(C)OC(=O)Nc2ccc(OCCCC[S+]([O-])c3cc(Br)c(N)c(Br)c3)cc21 (centres unmarked) [P, 6-[4-(4-amino-3,5-dibromo-phenylsulfinyl)-butoxy]-4,4-dimethyl-4H-3,1-benzoxazin-2-one] | 73% |  |  | 56 nM | 550 nM
CC1(C)OC(=O)Nc2ccc(OCCCCS(=N)(=O)c3ccc(-c4ccccc4)cc3)cc21 (centres unmarked) [Q, 6-[4-(4-biphenylyl-sulfoximino)-butoxy]-4,4-dimethyl-4H-3,1-benzoxazin-2-one] | 128% |  |  | 6.8 nM | 250 nM
COc1ccc(S(=O)(CCCCOc2ccc3c(c2)C(C)(C)OC(=O)N3)=NC(C)=O)cc1OC (centres unmarked) [R, 6-[4-(3,4-dimethoxy-N-acetyl-phenylsulfoximino)-butoxy]-4,4-dimethyl-4H-3,1-benzoxazin-2-one] | > 241% | 1000 mg | 0 out of 10 animals died | 710 nM | 2300 nM
CC(=O)N=S(=O)(CCCCOc1ccc2c(c1)C(C)(C)OC(=O)N2)c1cc(C(C)(C)C)c(O)c(C(C)(C)C)c1 (centres unmarked) [S, 6-[4-(3,5-di-tert.butyl-4-hydroxy-N-acetyl-phenylsulfoximino)-butoxy]-4,4-dimethyl-4H-3,1-benzoxazin-2-one] | > 226% | 1000 mg | 0 out of 10 animals died | 77 nM | 2200 nM
Cc1ccc(S(=N)(=O)CCCCOc2cc3c(cc2Br)NC(=O)OC3(C)C)cc1 (centres unmarked) [T, 7-bromo-4,4-dimethyl-6-[4-(4-methyl-phenylsulfoximino)-butoxy]-4H-3,1-benzoxazin-2-one] | 60% | 1000 mg | 0 out of 10 animals died | 1 nM | 69 nM
Cc1ccc([S+]([O-])CCCCOc2cc3c(cc2Cl)NC(=O)OC3(C)C)cc1 (centres unmarked) [U, 7-chloro-4,4-dimethyl-6-[4-(4-methyl-phenylsulfinyl)-butoxy]-4H-3,1-benzoxazin-2-one] | > 230% | 1000 mg | 0 out of 10 animals died | 3.4 nM | 28 nM
CC1(C)OC(=O)Nc2cc(Br)c(OCCCC[S+]([O-])c3ccc(Cl)c(Cl)c3)cc21 (centres unmarked) [V, 7-bromo-6-[4-(3,4-dichloro-phenylsulfinyl)-butoxy]-4,4-dimethyl-4H-3,1-benzoxazin-2-one] | 100% | 1000 mg | 0 out of 10 animals died | 3.8 nM | 44 nM
